Assay results as given in PubChem BioAssay (NCI).
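These data come from cells grown in 96-well plates and exposed to compound for 48 hours at five concentrations. The concentration for 50% growth inhibition is given as GI50. TGI denotes the concentration required for complete inhibition of growth.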

Tests used:
Experiment in all cases: growth of human tumour cells (NCI), 48 h
[1] = tested on: OVCAR-3 ovarian
[2] = tested on: HCC-2998 colon
[3] = tested on: MDA-MB-435
[4] = tested on: RXF 393 renal
[5] = tested on: BT-549 breast
[6] = tested on: A549 NSCLC
[7] = tested on: HS 578T breast
[8] = tested on: CCRF-CEM leukemia
[9] = tested on: UACC-62 melanoma
[10] = tested on: M14 melanoma
[11] = tested on: HL-60(TB) leukemia
[12] = tested on: SF-539 CNS
[13] = tested on: OVCAR-5 ovarian
[14] = tested on: HCT-116 colon
[15] = tested on: A498 renal
[16] = tested on: K-562 leukemia
[17] = tested on: COLO 205 colon
[18] = tested on: HOP-62 NSCLC
[19] = tested on: OVCAR-8 ovarian
[20] = tested on: DU-145 prostate
[21] = tested on: UACC-257 melanoma
[22] = tested on: CAKI-1 renal
[23] = tested on: KM12 colon
[24] = tested on: OVCAR-4 ovarian
[25] = tested on: RPMI-8226 leukemia
[26] = tested on: T-47D breast
[27] = tested on: MDA-MB-231 breast
[28] = tested on: PC-3 prostate
[29] = tested on: SK-MEL-28 melanoma
[30] = tested on: UO-31 renal
[31] = tested on: SF-268 CNS
[32] = tested on: NCI-H226 lung
[33] = tested on: MCF7 breast
[34] = tested on: SK-OV-3 ovarian
[35] = tested on: LOX IMVI melanoma
[36] = tested on: NCI/ADR-RES ovarian
[37] = tested on: HT29 colon
[38] = tested on: NCI-H522 lung
[39] = tested on: SR leukemia
[40] = tested on: NCI-H23 lung
[41] = tested on: HCT-15 colon
[42] = tested on: SNB-75 CNS
[43] = tested on: SF-295 CNS
[44] = tested on: NCI-H460 lung
[45] = tested on: HOP-92 NSCLC
[46] = tested on: TK-10 renal
[47] = tested on: MALME-3M melanoma
[48] = tested on: SNB-19 CNS
[49] = tested on: MDA-MB-468 breast
[50] = tested on: ACHN renal
[51] = tested on: SN12C renal
[52] = tested on: U251 CNS
[53] = tested on: SW-620 colon
[54] = tested on: 786-0 renal
[55] = tested on: IGROV1 ovarian
[56] = tested on: SK-MEL-5 melanoma
[57] = tested on: EKVX NSCLC
[58] = tested on: MOLT-4 leukemia
[59] = tested on: SK-MEL-2 melanoma

c1ccc(C(=C(c2ccc(OCCN3CCCCC3)cc2)c2ccc(OCCN3CCCCC3)cc2)C2CCCC2)cc1
GI50 [1]: 3.05 µM | TGI [1]: 5.85 µM | GI50 [2]: 2.83 µM | TGI [2]: 5.33 µM | GI50 [3]: 2.59 µM | TGI [3]: 5.37 µM | GI50 [4]: 2.91 µM | TGI [4]: 7.11 µM | GI50 [5]: 2.8 µM | TGI [5]: 5.38 µM | GI50 [6]: 3.29 µM | TGI [6]: 7.96 µM | GI50 [7]: 3.76 µM | TGI [7]: 11.8 µM | GI50 [8]: 3 µM | TGI [8]: 6.55 µM | GI50 [9]: 2.9 µM | TGI [9]: 5.35 µM | GI50 [10]: 3.43 µM | TGI [10]: 8.04 µM | GI50 [11]: 1.68 µM | TGI [11]: 5.42 µM | GI50 [12]: 2.88 µM | TGI [12]: 5.4 µM | GI50 [13]: 4.67 µM | TGI [13]: > 18 µM | GI50 [14]: 3.48 µM | TGI [14]: 6.82 µM | GI50 [15]: > 18 µM | TGI [15]: > 18 µM | GI50 [16]: 1.64 µM | TGI [16]: > 18 µM | GI50 [17]: 3.24 µM | TGI [17]: 6.71 µM | GI50 [18]: 5.01 µM | TGI [18]: > 18 µM | GI50 [19]: 6.93 µM | TGI [19]: > 18 µM | GI50 [20]: 4.25 µM | TGI [20]: 10.5 µM | GI50 [21]: 4.11 µM | TGI [21]: 12 µM | GI50 [22]: 7.87 µM | TGI [22]: > 18 µM | GI50 [23]: 3.45 µM | TGI [23]: 6.48 µM | GI50 [24]: 5.7 µM | TGI [24]: > 18 µM | GI50 [25]: 3.44 µM | TGI [25]: 8.24 µM | GI50 [26]: 3.98 µM | TGI [26]: 15.4 µM | GI50 [27]: 2.94 µM | TGI [27]: 6.01 µM | GI50 [28]: 3.58 µM | TGI [28]: 7.79 µM | GI50 [29]: 3.03 µM | TGI [29]: 5.81 µM | GI50 [30]: > 18 µM | TGI [30]: > 18 µM | GI50 [31]: 3.53 µM | TGI [31]: 9.09 µM | GI50 [32]: 3.32 µM | TGI [32]: 13.3 µM | GI50 [33]: 1.93 µM | TGI [33]: 4.52 µM | GI50 [34]: 4.27 µM | TGI [34]: 11.8 µM | GI50 [35]: 2.94 µM | TGI [35]: 5.43 µM | GI50 [36]: > 18 µM | TGI [36]: > 18 µM | GI50 [37]: 3.1 µM | TGI [37]: 6.24 µM | GI50 [38]: 2.61 µM | TGI [38]: 5.9 µM | GI50 [39]: 2.99 µM | TGI [39]: 8.46 µM | GI50 [40]: 5.16 µM | TGI [40]: 17.9 µM | GI50 [41]: > 18 µM | TGI [41]: > 18 µM | GI50 [42]: 1.97 µM | TGI [42]: 13.8 µM | GI50 [43]: 5.14 µM | TGI [43]: > 18 µM | GI50 [44]: 2.82 µM | TGI [44]: 5.41 µM | GI50 [45]: 2.57 µM | TGI [45]: 5.85 µM | GI50 [46]: 8.11 µM | TGI [46]: > 18 µM | GI50 [47]: 2.69 µM | TGI [47]: 5.1 µM | GI50 [48]: 4.39 µM | TGI [48]: 14.6 µM | GI50 [49]: 2.38 µM | TGI [49]: 5.19 µM | GI50 [50]: > 18 µM | TGI [50]: > 18 µM | GI50 [51]: 4.08 µM | TGI [51]: 11.8 µM | GI50 [52]: 3.56 µM | TGI [52]: 8.23 µM | GI50 [53]: 2.76 µM | TGI [53]: 5.35 µM | GI50 [54]: 5.54 µM | TGI [54]: > 18 µM | GI50 [55]: 2.98 µM | TGI [55]: 5.65 µM | GI50 [56]: 2.73 µM | TGI [56]: 5.23 µM | GI50 [57]: 8.68 µM | TGI [57]: > 18 µM | GI50 [58]: 2.59 µM | TGI [58]: 7.72 µM | GI50 [59]: 3.78 µM | TGI [59]: 9.2 µM
